Test results reported in EP4389749A1, “SUBSTITUTED 3,7-DIHYDRO-1H-PURINE-2,6-DIONES AND USE THEREOF” (invIOs GmbH, priority 2022, dated 2024).

Assays:
CD4+ T-cells = test: Immunostimulation assay with anti-CD3/28 stimulated T-cells, CD69 expression by flow cytometry; type: cell-based, human; conditions: T-cell; purified human CD4+ and CD8+ T-cells, 1 µg/ml anti-CD3, 1 µg/ml anti-CD28, 16 hours, surface FACS; read-out: EC50 CD4+
Method in brief: (§1)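 Human CD4+/CD8+ T-cells purified from buffy-coat PBMCs were stimulated with 1 µg/ml anti-CD3 and 1 µg/ml anti-CD28 plus compound (0.001–30 µM) for 16 h at 37 °C. CD69 measured by flow cytometry; DMSO set minimal, CD3/28 Dynabeads maximal activation; EC50 by variable-slope fit.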

CD8+ T-cells = test: as above; type: cell-based, human; conditions: T-cell; purified human CD4+ and CD8+ T-cells, 1 µg/ml anti-CD3, 1 µg/ml anti-CD28, 16 hours, surface FACS; read-out: EC50 CD8+
Method in brief: as §1

B16-SIY melanoma = test: Efficacy on B16-SIY melanoma, in vivo tumor growth; conditions: p.o., over the course of 21 days, C57BL/6 mice, B16-SIY intradermal
Experimental: Eight-weeks-old C57BL/6 mice were purchased from Charles River. All animal experiments were in accordance with institutional guidelines of the Research Institute of Molecular Pathology (Austria) and approved according to the European Community rules of animal care with the permission of the Austrian Ministry of Science.
B16-SIY melanoma cells were cultured in DMEM containing 10 % FCS, 1 % PenStrep and 1 % glutamine and grown in a humidified incubator at 37 °C and 5 % CO2. For tumor inoculations sub-confluent B16-SIYcells were trypsinized, washed, counted and resuspended in PBS to a final concentration of 1×10^7 B16-SIY cells/ml.
30 C57BL/6 mice were inoculated intradermally with 1×10^6 B16-SIY cells and tumor bearing mice randomly assigned to 3 different groups […] post transplantation: Compound 142 30 mg/kg 3 days post B16-SIY inoculation and subsequent daily administration of 10 mg/kg (10 mice), Compound 142 9 mg/kg 3 days post B16-SIY inoculation and subsequent daily treatment of 3 mg/kg (10 mice), or vehicle control (10 mice). Compound 142 was diluted in 10 % DMSO, 20 % PEG400, 21 % HPbCD, 0.35 % HPMC and 48.65 % H2O and mice treated p.o. with 2 different treatment schedules: d3: 30 mg/kg + QD: 10 mg/kg or d3: 9 mg/kg + QD: 3 mg/kg (Figure 1). […] Tumors were measured daily and mice sacrificed 21 days post B16-SIY inoculation (Figure 1). […]

SMILES | EC50 (CD4+ T-cells) [µM] | EC50 (CD8+ T-cells) [µM] | Tumor volumes compared to vehicle control (B16-SIY melanoma; d3: 9 mg/kg + QD: 3 mg/kg) | Tumor volumes compared to vehicle control (B16-SIY melanoma; d3: 30 mg/kg + QD: 10 mg/kg)
CC(O)Cn1c(=O)[nH]c(=O)c2c1nc(-c1ccc(Oc3ccc(OC(F)(F)F)cc3)cc1)n2C (centres unmarked) [Compound 142, 3-(2-hydroxypropyl)-7-methyl-8-(4-(4-(trifluoromethoxy)phenoxy)phenyl)-3,7-dihydro-1H-purine-2,6-dione] | 0.5 to 1 | 0.5 to 1 | significantly reduced | significantly reduced
CC(O)Cn1c(=O)[nH]c(=O)c2c1nc(-c1ccc(Oc3ccc(OC(F)(F)F)cc3F)cc1)n2C (centres unmarked) [Compound 193, 8-(4-(2-fluoro-4-(trifluoromethoxy)phenoxy)phenyl)-3-(2-hydroxypropyl)-7-methyl-3,7-dihydro-1H-purine-2,6-dione] | 1 to 5 | 1 to 5 | – | –
CC(O)Cn1c(=O)[nH]c(=O)c2c1nc(-c1ccc(Oc3ccc(OC(F)(F)F)c(Cl)c3)cc1)n2C (centres unmarked) [Compound 194, 8-(4-(3-chloro-4-(trifluoromethoxy)phenoxy)phenyl)-3-(2-hydroxypropyl)-7-methyl-3,7-dihydro-1H-purine-2,6-dione] | 0.1 to 0.5 | 0.5 to 1 | – | –
CC(O)Cn1c(=O)[nH]c(=O)c2c1nc(-c1ccc(Oc3ccc(F)c(C(F)(F)F)c3)cc1)n2C (centres unmarked) [Compound 195, 8-(4-(4-fluoro-3-(trifluoromethyl)phenoxy)phenyl)-3-(2-hydroxypropyl)-7-methyl-3,7-dihydro-1H-purine-2,6-dione] | 1 to 5 | 1 to 5 | – | –
COc1cc(-c2nc3c(c(=O)[nH]c(=O)n3CC(C)O)n2C)ccc1Oc1ccc(OC(F)(F)F)cc1 (centres unmarked) [Compound 196, 3-(2-hydroxypropyl)-8-(3-methoxy-4-(4-(trifluoromethoxy)phenoxy)phenyl)-7-methyl-3,7-dihydro-1H-purine-2,6-dione] | 1 to 5 | 1 to 5 | – | –
Cn1c(-c2ccc(OCc3ccccc3)c(OC(F)(F)F)c2)nc2c1c(=O)[nH]c(=O)n2CC(CO)C(F)F (centres unmarked) [Compound 198, 8-(4-(benzyloxy)-3-(trifluoromethoxy)phenyl)-3-(3,3-difluoro-2-(hydroxymethyl)propyl)-7-methyl-3,7-dihydro-1H-purine-2,6-dione] | < 0.1 | 0.1 to 0.5 | – | –
Cn1c(-c2ccc(OCc3ccccc3)c(OC(F)(F)F)c2)nc2c1c(=O)[nH]c(=O)n2CC(O)C(F)F (centres unmarked) [Compound 199, 8-(4-(benzyloxy)-3-(trifluoromethoxy)phenyl)-3-(3,3-difluoro-2-hydroxypropyl)-7-methyl-3,7-dihydro-1H-purine-2,6-dione] | < 0.1 | < 0.1 | – | –
CC(O)Cn1c(=O)[nH]c(=O)c2c1nc(-c1ccc(OCCc3ccccc3)c(F)c1)n2C (centres unmarked) [Compound 200, 8-(3-fluoro-4-phenethoxyphenyl)-3-(2-hydroxypropyl)-7-methyl-3,7-dihydro-1H-purine-2,6-dione] | 0.5 to 1 | 0.1 to 0.5 | – | –
CC(O)Cn1c(=O)[nH]c(=O)c2c1nc(-c1ccc(OCCCc3ccccc3)c(F)c1)n2C (centres unmarked) [Compound 201, 8-(3-fluoro-4-(3-phenylpropoxy)phenyl)-3-(2-hydroxypropyl)-7-methyl-3,7-dihydro-1H-purine-2,6-dione] | 0.1 to 0.5 | 0.1 to 0.5 | – | –
